Calls of active or inactive are those of the source. How the calls were made is not given here.

This is an account of results in PubChem BioAssay AID1259411 (Chemical Carcinogenesis Research Information System (CCRIS), 2018).

For this data set, the system named is rodent carcinogenicity bioassays, tumor incidence. Nature of the data set: CCRIS carcinogenicity studies. As to conditions: Dose: 0, Dose: 0. Put shortly:
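Archive of carcinogenicity, mutagenicity, tumor promotion and tumor inhibition results drawn from journals, NCI reports and other sources, expert-reviewed; covers 1985-2011 and is no longer updated.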

For the compound `COc1ccc([C@H]2O[C@H]2C)cc1`, the carcinogen call is “active; positive” (Species: MOUSE, Strain/Sex: B6C3F1/MALE, Route: INTRAPERITONEAL, 0.25, 0.5 UMOL/G BW ONCE (STUDY DURATION: 10-11 MONTHS), 0.25, 0.5 UMOL/G BW ONCE (STUDY DURATION: 10-11 MONTHS), Tumor Site: Type of Lesion: LIVER: HEPATOMA) and “active; positive” (Species: MOUSE, Strain/Sex: CD-1/FEMALE, Route: DERMAL, 5 UMOL 1X/WK FOR 3 WK BEGINNING 24 HR POST FIRST TPA DOSE (2.5 UG IN 0.1 ML ACETONE), FOLLOWED BY 2.5 UG TPA IN 0.1 M, Tumor Site: Type of Lesion: SKIN: PAPILLOMA).

As to `S=C([S-])NCCNC(=S)[S-].[Zn+2]`, the carcinogen call runs as follows: (Species: MOUSE, Strain/Sex: CD/FEMALE, Route: ORAL, 100, 300 PPM IN DIET FOR 89 WK (STUDY DURATION: 94 WK), 100, 300 PPM IN DIET FOR 89 WK (STUDY DURATION: 94 WK)) “inactive; negative”; (Species: MOUSE, Strain/Sex: CD/FEMALE, Route: ORAL, 1000 PPM IN DIET FOR 88 WK (STUDY DURATION: 88 WK)) “inactive; negative”; (Species: MOUSE, Strain/Sex: CD/MALE, Route: ORAL, 100, 300, 1000 PPM IN DIET FOR 95 WK (STUDY DURATION: 96 WK), 100, 300, 1000 PPM IN DIET FOR 95 WK (STUDY DURATION: 96 WK)) “inactive; negative”; (Species: RAT, Strain/Sex: CD/FEMALE, Route: ORAL, 5, 20, 80, 320 PPM IN DIET FOR 112 WK (STUDY DURATION: 112 WK), 5, 20, 80, 320 PPM IN DIET FOR 112 WK (STUDY DURATION: 112 WK)) “inactive; negative”; (Species: RAT, Strain/Sex: CD/MALE, Route: ORAL, 5, 20, 80, 320 PPM IN DIET FOR 119 WK (STUDY DURATION: 119 WK), 5, 20, 80, 320 PPM IN DIET FOR 119 WK (STUDY DURATION: 119 WK)) “inactive; negative”.

In the case of `CCOc1ccc(NC(=O)CC(C)O)cc1` (centres undefined), the carcinogen call (Species: MOUSE, Strain/Sex: B6C3F1/FEMALE, Route: ORAL, 0.75, 1.5% IN BASAL DIET FOR 76 WK FOLLOWED BY BASAL DIET ONLY FOR 8 WK (STUDY DURATION: 84 WK), 0.75, 1.5% IN BASAL DIET FOR 76 WK FOLLOWED BY BASAL DIET ONLY FOR 8 WK (STUDY DURATION: 84 WK)) is “inactive; negative” and the carcinogen call (Species: MOUSE, Strain/Sex: B6C3F1/MALE, Route: ORAL, 0.75, 1.5% IN BASAL DIET FOR 76 WK FOLLOWED BY BASAL DIET ONLY FOR 8 WK (STUDY DURATION: 84 WK), 0.75, 1.5% IN BASAL DIET FOR 76 WK FOLLOWED BY BASAL DIET ONLY FOR 8 WK (STUDY DURATION: 84 WK), Tumor Site: Type of Lesion: KIDNEY: RENAL CELL ADENOMA, RENAL CELL CARCINOMA) was “active; positive”.

As to `CCN(CC)C(=O)N(CC)N=O`, for the setting “Species: HAMSTER, Strain/Sex: SYRIAN/MALE, Route: GAVAGE, 45 MG/ML (0.2 ML OF A SOLUTION IN 50% ETHANOL) 1/WK FOR 25 WK (STUDY DURATION: LIFE SPAN), Tumor Site: Type of Lesion: SPLEEN: HEMANGIOSARCOMA, FORESTOMACH: SQUAMOUS CELL CARCINOMA OR PAPILLOMA”, the carcinogen call was “active; positive”.

As for `[Cl][Sn][Cl]`, the carcinogen call by setting is: (Species: MOUSE, Strain/Sex: B6C3F1/FEMALE, Route: ORAL, 1000, 2000 PPM IN DIET FOR 105 WK (STUDY DURATION: 105 WK), 1000, 2000 PPM IN DIET FOR 105 WK (STUDY DURATION: 105 WK)) “inactive; negative”; (Species: MOUSE, Strain/Sex: B6C3F1/MALE, Route: ORAL, 1000, 2000 PPM IN DIET FOR 105 WK (STUDY DURATION: 105 WK), 1000, 2000 PPM IN DIET FOR 105 WK (STUDY DURATION: 105 WK)) “inactive; negative”; (Species: RAT, Strain/Sex: F344/FEMALE, Route: ORAL, 1000, 2000 PPM IN DIET FOR 105 WK (STUDY DURATION: 105 WK), 1000, 2000 PPM IN DIET FOR 105 WK (STUDY DURATION: 105 WK)) “inactive; negative”; (Species: RAT, Strain/Sex: F344/MALE, Route: ORAL, 1000, 2000 PPM IN DIET FOR 105 WK (STUDY DURATION: 105 WK), 1000, 2000 PPM IN DIET FOR 105 WK (STUDY DURATION: 105 WK), Tumor Site: Type of Lesion: THYROID GLAND: C-CELL ADENOMA, C-CELL ADENOMA OR CARCINOMA) “equivocal”.
